Data from article PMC9866191, “Novel 9-Benzylaminoacridine Derivatives as Dual Inhibitors of Phosphodiesterase 5 and Topoisomerase II for the Treatment of Colon Cancer” (Molecules, 2023).

Tests used:
Test in all cases: NCI-60 one-dose screen
Format in all cases: cell-based
ACHN = settings: Homo sapiens, Renal Cancer panel, single dose 10^−5 M, read-out: Growth inhibition %
SNB-75 = settings: Homo sapiens; SNB-75, CNS Cancer panel; single dose 10^−5 M; read-out: Growth inhibition %
A549/ATCC = settings: Homo sapiens, Non-small cell lung panel, single dose 10^−5 M, read-out: Growth inhibition %
BT-549 = settings: Homo sapiens; BT-549, Breast Cancer panel; single dose 10^−5 M; read-out: Growth inhibition %
M14 = settings: Homo sapiens; M14, Melanoma panel; single dose 10^−5 M; read-out: Growth inhibition %
UACC-62 = settings: Homo sapiens; UACC-62, Melanoma panel; single dose 10^−5 M; read-out: Growth inhibition %
SN12C = settings: Homo sapiens, Renal Cancer panel, single dose 10^−5 M, read-out: Growth inhibition %
EKVX = settings: Homo sapiens, Non-small cell lung panel, single dose 10^−5 M, read-out: Growth inhibition %
OVCAR-4 = settings: Homo sapiens; OVCAR-4, Ovarian Cancer panel; single dose 10^−5 M; read-out: Growth inhibition %
MALME-3M = settings: Homo sapiens, Melanoma panel, single dose 10^−5 M, read-out: Growth inhibition %
NCI-H322M = settings: Homo sapiens, Non-small cell lung panel, single dose 10^−5 M, read-out: Growth inhibition %
NCI-H23 = settings: Homo sapiens; NCI-H23, Non-small cell lung panel; single dose 10^−5 M; read-out: Growth inhibition %
SW-620 = settings: Homo sapiens; SW-620, Colon Cancer panel; single dose 10^−5 M; read-out: Growth inhibition %
SK-MEL-5 = settings: Homo sapiens; SK-MEL-5, Melanoma panel; single dose 10^−5 M; read-out: Growth inhibition %
NCI/ADR-RES = settings: Homo sapiens, Ovarian Cancer panel, single dose 10^−5 M, read-out: Growth inhibition %
NCI-H522 = settings: Homo sapiens; NCI-H522, Non-small cell lung panel; single dose 10^−5 M; read-out: Growth inhibition %
SF-295 = settings: Homo sapiens; SF-295, CNS Cancer panel; single dose 10^−5 M; read-out: Growth inhibition %
MDA-MB-468 = settings: Homo sapiens; MDA-MB-468, Breast Cancer panel; single dose 10^−5 M; read-out: Growth inhibition %
HOP-92 = settings: Homo sapiens; HOP-92, Non-small cell lung panel; single dose 10^−5 M; read-out: Growth inhibition %
HOP-62 = settings: Homo sapiens; HOP-62, Non-small cell lung panel; single dose 10^−5 M; read-out: Growth inhibition %
COLO 205 = settings: Homo sapiens; COLO 205, Colon Cancer panel; single dose 10^−5 M; read-out: Growth inhibition %
MCF7 = settings: Homo sapiens; MCF7, Breast Cancer panel; single dose 10^−5 M; read-out: Growth inhibition %
HL-60(TB) = settings: Homo sapiens, Leukemia panel, single dose 10^−5 M, read-out: Growth inhibition %
PC-3 = settings: Homo sapiens; PC-3, Prostate Cancer panel; single dose 10^−5 M; read-out: Growth inhibition %
CAKI-1 = settings: Homo sapiens; CAKI-1, Renal Cancer panel; single dose 10^−5 M; read-out: Growth inhibition %
U251 = settings: Homo sapiens, U-251; U251, CNS Cancer panel; single dose 10^−5 M; read-out: Growth inhibition %
HS 578T = settings: Homo sapiens, Breast Cancer panel, single dose 10^−5 M, read-out: Growth inhibition %
786-0 = settings: Homo sapiens; 786-0, Renal Cancer panel; single dose 10^−5 M; read-out: Growth inhibition %
HT29 = settings: Homo sapiens, HT-29; HT29, Colon Cancer panel; single dose 10^−5 M; read-out: Growth inhibition %
HCT-116 = settings: Homo sapiens, read-out: Growth inhibition %
UACC-257 = settings: Homo sapiens; UACC-257, Melanoma panel; single dose 10^−5 M; read-out: Growth inhibition %
SK-MEL-2 = settings: Homo sapiens; SK-MEL-2, Melanoma panel; single dose 10^−5 M; read-out: Growth inhibition %
T-47D = settings: Homo sapiens, T47D, Breast Cancer panel, single dose 10^−5 M, read-out: Growth inhibition %

SMILES | inhibition at 10 µM (ACHN) [%] | inhibition at 10 µM (SNB-75) [%] | inhibition at 10 µM (A549/ATCC) [%] | inhibition at 10 µM (BT-549) [%] | inhibition at 10 µM (M14) [%] | inhibition at 10 µM (UACC-62) [%] | inhibition at 10 µM (SN12C) [%] | inhibition at 10 µM (EKVX) [%] | inhibition at 10 µM (OVCAR-4) [%] | inhibition at 10 µM (MALME-3M) [%] | inhibition at 10 µM (NCI-H322M) [%] | inhibition at 10 µM (NCI-H23) [%] | inhibition at 10 µM (SW-620) [%] | inhibition at 10 µM (SK-MEL-5) [%] | inhibition at 10 µM (NCI/ADR-RES) [%] | inhibition at 10 µM (NCI-H522) [%] | inhibition at 10 µM (SF-295) [%] | inhibition at 10 µM (MDA-MB-468) [%] | inhibition at 10 µM (HOP-92) [%] | inhibition at 10 µM (HOP-62) [%] | further results
c1csc(-c2ccc(CNc3c4ccccc4nc4ccccc34)cc2)c1 [Compound 24, Acridin-9-yl-(4-thiophen-2-yl-benzyl)-amine] | 41.4 | 63.9 | 73.3 | 66.3 | 174 | 35.5 | 36.8 | 41 | 84.7 | 182 | 49.4 | 61.8 | 172 | 191 | 88.8 | 71.1 | 84.2 | 173 | 102 | 45.4 | inhibition at 10 µM (COLO 205): 94.9%; inhibition at 10 µM (MCF7): 163%; inhibition at 10 µM (HL-60(TB)): 157%; inhibition at 10 µM (PC-3): 76%; inhibition at 10 µM (CAKI-1): 64.5%; inhibition at 10 µM (U251): 173%; inhibition at 10 µM (HS 578T): 39.4%; inhibition at 10 µM (786-0): 70%; inhibition at 10 µM (HT29): 147%; inhibition at 10 µM (HCT-116): 183%; inhibition at 10 µM (UACC-257): 137%; inhibition at 10 µM (SK-MEL-2): 19.2%; inhibition at 10 µM (T-47D): 28.1%
COc1ccc2nc3ccccc3c(NCc3ccccc3)c2c1 [Compound 25, Benzyl-(2-methoxyacridin-9-yl)-amine] | 87.2 | 54.5 | 81.8 | 49.7 | 74 | 54.1 | 77.5 | 73.1 | 59.2 | 77.5 | 70.5 | 78.5 | 80.5 | 81.2 | 81.7 | 65.4 | 80.3 | 110 | 113 | 66.4 | inhibition at 10 µM (COLO 205): 119%; inhibition at 10 µM (MCF7): 95.7%; inhibition at 10 µM (HL-60(TB)): 91.8%; inhibition at 10 µM (PC-3): 71.3%; inhibition at 10 µM (CAKI-1): 74.2%; inhibition at 10 µM (U251): 77.1%; inhibition at 10 µM (HS 578T): 74.8%; inhibition at 10 µM (786-0): 77.7%; inhibition at 10 µM (HT29): 91.5%; inhibition at 10 µM (HCT-116): 85.2%; inhibition at 10 µM (UACC-257): 72.9%; inhibition at 10 µM (SK-MEL-2): 52.1%; inhibition at 10 µM (T-47D): 64.7%
COc1ccc2nc3ccccc3c(NCc3ccc(F)cc3)c2c1 [Compound 28, (4-Fluorobenzyl)-(2-methoxyacridin-9-yl)-amine] | 94.3 | 76.2 | 80.3 | 65 | 84.7 | 60.9 | 83 | 77.6 | 86.4 | 105 | 77.4 | 86 | 85.3 | 107 | 84.9 | 81.8 | 85.6 | 124 | 111 | 71.8 | inhibition at 10 µM (COLO 205): 154%; inhibition at 10 µM (MCF7): 128%; inhibition at 10 µM (HL-60(TB)): 135%; inhibition at 10 µM (PC-3): 82.9%; inhibition at 10 µM (CAKI-1): 92.8%; inhibition at 10 µM (U251): 77.9%; inhibition at 10 µM (HS 578T): 73.9%; inhibition at 10 µM (786-0): 93.2%; inhibition at 10 µM (HT29): 99.8%; inhibition at 10 µM (HCT-116): 91.1%; inhibition at 10 µM (UACC-257): 111%; inhibition at 10 µM (SK-MEL-2): 65%; inhibition at 10 µM (T-47D): 63.5%
Cc1ccc2nc3ccccc3c(NCc3ccccc3)c2c1 [Compound 30, Benzyl-(2-methylacridin-9-yl)-amine] | 76.8 | 35 | 59.8 | 31 | 54.4 | 43.6 | 74.5 | 50.4 | 67.2 | 44.8 | 59.1 | 64.2 | 75.7 | 41.2 | 70.2 | 63 | 72 | 111 | 107 | 56.5 | inhibition at 10 µM (COLO 205): 91.9%; inhibition at 10 µM (MCF7): 88.8%; inhibition at 10 µM (HL-60(TB)): 59.4%; inhibition at 10 µM (PC-3): 70.3%; inhibition at 10 µM (CAKI-1): 64.5%; inhibition at 10 µM (U251): 63%; inhibition at 10 µM (HS 578T): 30.2%; inhibition at 10 µM (786-0): 65.7%; inhibition at 10 µM (HT29): 88.4%; inhibition at 10 µM (HCT-116): 90.6%; inhibition at 10 µM (UACC-257): 43.4%; inhibition at 10 µM (SK-MEL-2): 0.04%; inhibition at 10 µM (T-47D): 36.4%
